# Measured values from US11566007B2, “Ras inhibitors” (Revolution Medicines, Inc., priority 2019, dated 2023).
# Experiments:
# [1] = test system: NCI-H358 cells (K-Ras G12C); assay: Potency assay: pERK in NCI-H358 cells; format: cell-based, human; settings: Homo sapiens, NCI-H358; H358 KRAS G12C; read-out: pERK EC50
# Outline: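 4 h cpd, 37 °C; 10-pt 3-fold series, 10 mM DMSO top stock, duplicates. Readout pERK: AlphaLISA SureFire Ultra or In-Cell Western (IR-800CW secondary, DRAQ5 DNA stain). IC50, 4-PL fit vs log conc.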
# [2] = test system: NCI-H358 (K-Ras G12C); assay: CellTiter-Glo cell viability assay, NCI-H358; format: cell-based, human; settings: Homo sapiens, NCI-H358, 120 h, NCI-H358, 5-day treatment; class symbols; read-out: Additional H358 Cell Viability assay data (K-Ras G12C, IC50)
# Outline: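 Viability of K-Ras mutant lines is measured by ATP luminescence after five days of compound treatment. Percent of DMSO control is calculated and dose-response data are fitted with a four-parameter logistic equation.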
# [3] = biological target: KRAS G12S (Homo sapiens (Human), UniProt P01116+P62937, G12S); assay: Ras-Raf (BRAF RBD) disruption / FRET / MOA assay, KRAS G12S; format: biochemical; settings: Ras-Raf disruption/FRET/MOA assay; class symbols; read-out: KRAS G12S FRET data IC50
# Chain of KRAS G12S (P01116-2 other isoform, or with tags, fused parts or gaps G12S): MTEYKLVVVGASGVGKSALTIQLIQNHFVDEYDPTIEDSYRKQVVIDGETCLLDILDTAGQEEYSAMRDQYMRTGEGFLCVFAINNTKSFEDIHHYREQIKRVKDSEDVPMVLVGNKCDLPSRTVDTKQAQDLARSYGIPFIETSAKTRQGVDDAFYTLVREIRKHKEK
# Chain of KRAS G12S (P62937 whole entry): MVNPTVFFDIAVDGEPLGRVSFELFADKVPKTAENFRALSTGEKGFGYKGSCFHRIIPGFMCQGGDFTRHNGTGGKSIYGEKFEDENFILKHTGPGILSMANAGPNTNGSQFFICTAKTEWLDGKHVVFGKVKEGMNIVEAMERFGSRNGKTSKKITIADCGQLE
# Outline: (§1)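 Compound-driven ternary complex of nucleotide-loaded Ras with cyclophilin A, disrupting BRAF RBD binding. 10-point 3-fold dilution from 30 μM final, 3 h at 25° C, then anti-His Eu-W1024 (10 nM) and anti-GST allophycocyanin (50 nM) for 1.5 h. IC50 from TR-FRET ratio decrease versus DMSO.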
# [4] = biological target: KRAS WT (Homo sapiens (Human), UniProt P01116+P62937); assay: Ras-Raf (BRAF RBD) disruption / FRET / MOA assay, KRAS WT; format: biochemical; settings: read-out: IC50* KRAS WT FRET data
# Chain of KRAS WT (P01116-2 other isoform, or with tags, fused parts or gaps): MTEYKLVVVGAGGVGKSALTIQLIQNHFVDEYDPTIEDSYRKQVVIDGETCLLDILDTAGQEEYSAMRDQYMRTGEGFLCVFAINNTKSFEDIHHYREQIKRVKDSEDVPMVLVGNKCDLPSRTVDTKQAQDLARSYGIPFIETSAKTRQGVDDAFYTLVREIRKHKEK
# Chain of KRAS WT (P62937 whole entry): as the sequence (P62937 whole entry) above
# Outline: as §1
# [5] = biological target: NRAS Q61R (Homo sapiens (Human), UniProt P01111+P62937, Q61R); assay: Ras-Raf (BRAF RBD) disruption / FRET / MOA assay, NRAS Q61R; format: biochemical; settings: NRAS Q61R; Ras-Raf disruption/FRET/MOA assay; read-out: IC50* NRAS Q61R FRET data
# Chain of NRAS Q61R (P01111 whole entry Q61R): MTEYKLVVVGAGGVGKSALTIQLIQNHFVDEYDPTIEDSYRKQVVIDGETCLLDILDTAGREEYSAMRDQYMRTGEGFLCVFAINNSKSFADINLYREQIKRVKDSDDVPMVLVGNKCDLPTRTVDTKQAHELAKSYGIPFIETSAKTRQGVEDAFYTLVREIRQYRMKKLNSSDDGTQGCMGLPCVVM
# Chain of NRAS Q61R (P62937 whole entry): as the sequence (P62937 whole entry) above
# Outline: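 Compounds (30 μM top final, 10-point 3-fold dilutions) incubated 3 h at 25° C with nucleotide-loaded Ras, cyclophilin A and BRAF RBD. Detection with 10 nM anti-His Eu-W1024 and 50 nM anti-GST allophycocyanin over another 1.5 h. Lowered TR-FRET ratio relative to DMSO wells gives IC50.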
SMILES,EC50 [1],IC50 [2],IC50 [3],IC50 [4],IC50 [5]
"C=CC(=O)N1CC[C@]2(CCN(C(=O)N(C)[C@H](C(=O)N[C@H]3Cc4nc(cs4)-c4ccc5c(c4)c(c(-c4cccnc4[C@H](C)OC)n5CC)CC(C)(C)COC(=O)[C@@H]4CCCN(N4)C3=O)C(C)C)C2)C1 (atropisomer, axis not shown) [Example A719]",< 5000 nM,10 to 100 nM,100 to 1000 nM,100 to 1000 nM,10 to 100 nM
"CCn1c(-c2cccnc2[C@H](C)OC)c2c3cc(ccc31)-c1csc(n1)C[C@H](NC(=O)[C@H](C(C)C)N(C)C(=O)N1CCC3(CC1)CN(C(=O)/C=C/CN(C)C)C3)C(=O)N1CCC[C@H](N1)C(=O)OCC(C)(C)C2 (atropisomer, axis not shown) [Example A650]",< 5000 nM,10 to 100 nM,100 to 1000 nM,100 to 1000 nM,100 to 1000 nM
"CO[C@@H](C)c1ncccc1-c1c2c3cc(ccc3n1CC(F)(F)F)-c1cccc(c1)C[C@H](NC(=O)[C@H](C(C)C)N(C)C(=O)N1CCC3(CC1)CN(C(=O)/C=C/CN(C)C)C3)C(=O)N1CCC[C@H](N1)C(=O)OCC(C)(C)C2 (atropisomer, axis not shown) [Example A555]",< 5000 nM,10 to 100 nM,100 to 1000 nM,100 to 1000 nM,100 to 1000 nM
"CCn1c(-c2cccnc2[C@H](C)OC)c2c3cc(ccc31)-c1csc(n1)C[C@H](NC(=O)[C@@H](F)COC1CN(C(=O)C#CC(C)(C)N(C)C)C1)C(=O)N1CCC[C@H](N1)C(=O)OCC(C)(C)C2 (atropisomer, axis not shown) [Example A626]",< 5000 nM,10 to 100 nM,1000 to 10000 nM,1000 to 10000 nM,1000 to 10000 nM
"C=CC(=O)N1C[C@@H](C)N(C(=O)N(C)[C@H](C(=O)N[C@H]2Cc3nc(cs3)-c3ccc4c(c3)c(c(-c3cccnc3[C@H](C)OC)n4CC)CC(C)(C)COC(=O)[C@@H]3CCCN(N3)C2=O)C(C)C)[C@@H](C)C1 (atropisomer, axis not shown) [Example A387]",< 5000 nM,10 to 100 nM,100 to 1000 nM,10 to 100 nM,10 to 100 nM
